Experimental findings from PMC12695923, “The role of N185D substitution in enhancing activity of BaqA∆C α-amylase” (Scientific Reports, 2025) are described below.

This test addresses T1, BaqAΔC (Rossellomorea aquimaris, UniProt G8IJA7).
T1 construct: gene baqA
T1 sequence (G8IJA7 24-478): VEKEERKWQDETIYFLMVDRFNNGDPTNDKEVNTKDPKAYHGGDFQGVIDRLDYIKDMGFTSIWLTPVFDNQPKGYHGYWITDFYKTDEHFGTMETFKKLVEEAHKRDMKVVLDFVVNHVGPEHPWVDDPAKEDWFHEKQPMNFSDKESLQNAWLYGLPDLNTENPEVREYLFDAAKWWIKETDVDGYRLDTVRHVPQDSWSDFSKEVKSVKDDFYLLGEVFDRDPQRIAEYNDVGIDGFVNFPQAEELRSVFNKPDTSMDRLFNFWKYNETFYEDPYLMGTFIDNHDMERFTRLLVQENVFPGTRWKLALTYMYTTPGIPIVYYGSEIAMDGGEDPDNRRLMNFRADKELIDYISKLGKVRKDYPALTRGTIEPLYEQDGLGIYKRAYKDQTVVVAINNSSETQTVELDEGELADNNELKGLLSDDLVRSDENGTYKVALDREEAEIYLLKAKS
In words: intrinsic fluorescence quenching, modified Stern-Volmer plot. Type of test: binding. The conditions noted are these: 50 mM HEPES pH 8; 15 min at 50 °C, spectra at 25 °C; n = 1.3; acarbose 15-75 mM.

As for `C[C@H]1O[C@H](O[C@H]2[C@H](O)[C@@H](O)[C@@H](O[C@H]3[C@H](O)[C@@H](O)C(O)O[C@@H]3CO)O[C@@H]2CO)[C@H](O)[C@@H](O)[C@@H]1N[C@H]1C=C(CO)[C@@H](O)[C@H](O)[C@H]1O` (stereo partly shown) [acarbose], the Ka is listed as 0.032 mL/mg.
